Where only a bound is given, the exact number is not on record here.

The nature of experiment [1]: Inhibition of wild type EGFR in human A-431 cells assessed as cell growth inhibition measured after 72 hrs by Celltiter-Glo luminescent cell viability assay.
A short description of experiment [2]: Inhibition of wild type EGFR in human MCF7 cells assessed as cell growth inhibition measured after 72 hrs by Celltiter-Glo luminescent cell viability assay.
Experiment [3] in a line: Inhibition of wild type EGFR in human HT-29 cells assessed as cell growth inhibition measured after 72 hrs by Celltiter-Glo luminescent cell viability assay.
Experiment [4] in a line: Inhibition of wild type EGFR in human HepG2 cells assessed as cell growth inhibition measured after 72 hrs by Celltiter-Glo luminescent cell viability assay.

As for `C=CCSSCCC(=O)OCCCOc1cc2ncnc(Nc3cccc(Br)c3)c2cc1OC`, the IC50 was 6.7 µM in experiment [1], 7.31 µM in experiment [2], greater than 10 µM in experiment [3] and greater than 10 µM in experiment [4].
